Assay results as given in publication PMC9310519, “Small-molecule inhibitor of intestinal anion exchanger SLC26A3 for treatment of hyperoxaluria and nephrolithiasis” (JCI Insight, 2022).

Assays:
[1] = target: T1, M1 Human Acetylcholine (Muscarinic) (Homo sapiens, UniProt P11229); experiment: biochemical; parameters: Eurofins SafetyScreen44 radioligand binding displacement, percent inhibition, duplicate; details: radioligand binding
T1 construct: gene CHRM1
Protocol: (§1) Possible off-target effects of DRAinh-A270 were investigated by panel screening (Eurofins SafetyScreen44). […] Testing for CYP450 and hERG inhibition also supported DRAinh-A270 safety (Supplemental Tables 2 and 3, respectively). Finally, metabolic stability of DRAinh-A270 was measured in mouse, rat, and human microsomes.

5-HT1B Human Serotonin = target: T2, 5-HT1B Human Serotonin (Homo sapiens, UniProt P28222); experiment: biochemical; parameters: Eurofins SafetyScreen44 radioligand binding displacement, percent inhibition, duplicate; details: radioligand binding
T2 construct: gene HTR1B
Protocol: as §1

[2] = target: T3, NET Human Norepinephrine Transporter (Homo sapiens, UniProt P23975); experiment: biochemical; parameters: Eurofins SafetyScreen44 radioligand binding displacement, percent inhibition, duplicate; details: radioligand binding
T3 construct: gene SLC6A2
Protocol: as §1

A2A Human Adenosine = target: T4, A2A Human Adenosine (Homo sapiens, UniProt P29274); experiment: biochemical; parameters: Eurofins SafetyScreen44 radioligand binding displacement, percent inhibition, duplicate; details: radioligand binding
T4 construct: gene ADORA2A
Protocol: as §1

D2S Human Dopamine = target: T5, D2S Human Dopamine (Homo sapiens, UniProt P14416); experiment: biochemical; parameters: Eurofins SafetyScreen44 radioligand binding displacement, percent inhibition, duplicate; details: radioligand binding
T5 construct: gene DRD2; D2S short isoform
Protocol: as §1

CB1 Human Cannabinoid = target: T6, CB1 Human Cannabinoid (Homo sapiens, UniProt P21554); experiment: biochemical; parameters: Eurofins SafetyScreen44 radioligand binding displacement, percent inhibition, duplicate; details: radioligand binding
T6 construct: gene CNR1
Protocol: as §1

[3] = target: T7, DAT Human Dopamine Transporter (Homo sapiens, UniProt Q01959); experiment: biochemical; parameters: Eurofins SafetyScreen44 radioligand binding displacement, percent inhibition, duplicate; details: radioligand binding
T7 construct: gene SLC6A3
Protocol: as §1

GR Human Glucocorticoid = target: T8, GR Human Glucocorticoid (Homo sapiens, UniProt P04150); experiment: biochemical; parameters: Eurofins SafetyScreen44 radioligand binding displacement, percent inhibition, duplicate; details: radioligand binding
T8 construct: gene NR3C1
Protocol: as §1

[4] = target: T9, alpha2A Human Adrenoceptor (Homo sapiens, UniProt P08913); experiment: biochemical; parameters: Eurofins SafetyScreen44 radioligand binding displacement, percent inhibition, duplicate; details: radioligand binding
T9 construct: gene ADRA2A
Protocol: as §1

5-HT2A Human Serotonin = target: T10, 5-HT2A Human Serotonin (Homo sapiens, UniProt P28223); experiment: biochemical; parameters: Eurofins SafetyScreen44 radioligand binding displacement, percent inhibition, duplicate; details: radioligand binding
T10 construct: gene HTR2A
Protocol: as §1

mu (MOP) Human Opioid = target: T11, mu (MOP) Human Opioid (Homo sapiens, UniProt P35372); experiment: biochemical; parameters: Eurofins SafetyScreen44 radioligand binding displacement, percent inhibition, duplicate; details: radioligand binding
T11 construct: gene OPRM1
Protocol: as §1

[5] = target: T12, alpha1A Human Adrenoceptor (Homo sapiens, UniProt P35348); experiment: biochemical; parameters: Eurofins SafetyScreen44 radioligand binding displacement, percent inhibition, duplicate; details: radioligand binding
T12 construct: gene ADRA1A
Protocol: as §1

5-HT2B Human Serotonin = target: T13, 5-HT2B Human Serotonin (Homo sapiens, UniProt P41595); experiment: biochemical; parameters: Eurofins SafetyScreen44 radioligand binding displacement, percent inhibition, duplicate; details: radioligand binding
T13 construct: gene HTR2B
Protocol: as §1

H2 Human Histamine = target: T14, H2 Human Histamine (Homo sapiens, UniProt P25021); experiment: biochemical; parameters: Eurofins SafetyScreen44 radioligand binding displacement, percent inhibition, duplicate; details: radioligand binding
T14 construct: gene HRH2
Protocol: as §1

ETA Human Endothelin = target: T15, ETA Human Endothelin (Homo sapiens, UniProt P25101); experiment: biochemical; parameters: Eurofins SafetyScreen44 radioligand binding displacement, percent inhibition, duplicate; details: radioligand binding
T15 construct: gene EDNRA
Protocol: as §1

delta (DOP) Human Opioid = target: T16, delta (DOP) Human Opioid (Homo sapiens, UniProt P41143); experiment: biochemical; parameters: Eurofins SafetyScreen44 radioligand binding displacement, percent inhibition, duplicate; details: radioligand binding
T16 construct: gene OPRD1
Protocol: as §1

beta2 Human Adrenoceptor = target: T17, beta2 Human Adrenoceptor (Homo sapiens, UniProt P07550); experiment: biochemical; parameters: Eurofins SafetyScreen44 radioligand binding displacement, percent inhibition, duplicate; details: radioligand binding
T17 construct: gene ADRB2
Protocol: as §1

[6] = target: T18, M3 Human Acetylcholine (Muscarinic) (Homo sapiens, UniProt P20309); experiment: biochemical; parameters: Eurofins SafetyScreen44 radioligand binding displacement, percent inhibition, duplicate; details: radioligand binding
T18 construct: gene CHRM3
Protocol: as §1

[7] = target: T19, CCK1 (CCKA) Human Cholecystokinin (Homo sapiens, UniProt P32238); experiment: biochemical; parameters: Eurofins SafetyScreen44 radioligand binding displacement, percent inhibition, duplicate; details: radioligand binding
T19 construct: gene CCKAR
Protocol: as §1

kappa (KOP) Human Opioid = target: T20, kappa (KOP) Human Opioid (Homo sapiens, UniProt P41145); experiment: biochemical; parameters: Eurofins SafetyScreen44 radioligand binding displacement, percent inhibition, duplicate; details: radioligand binding
T20 construct: gene OPRK1
Protocol: as §1

CB2 Human Cannabinoid = target: T21, CB2 Human Cannabinoid (Homo sapiens, UniProt P34972); experiment: biochemical; parameters: Eurofins SafetyScreen44 radioligand binding displacement, percent inhibition, duplicate; details: radioligand binding
T21 construct: gene CNR2
Protocol: as §1

V1A Human Vasopressin = target: T22, V1A Human Vasopressin (Homo sapiens, UniProt P37288); experiment: biochemical; parameters: Eurofins SafetyScreen44 radioligand binding displacement, percent inhibition, duplicate; details: radioligand binding
T22 construct: gene AVPR1A
Protocol: as §1

hERG = target: T23, hERG (Homo sapiens, UniProt Q12809); experiment: in vitro; parameters: Eurofins SafetyScreen44 radioligand binding displacement, percent inhibition, duplicate; details: radioligand binding
T23 construct: gene KCNH2
Protocol: as §1

D1 Human Dopamine = target: T24, D1 Human Dopamine (Homo sapiens, UniProt P21728); experiment: biochemical; parameters: Eurofins SafetyScreen44 radioligand binding displacement, percent inhibition, duplicate; details: radioligand binding
T24 construct: gene DRD1
Protocol: as §1

5-HT3 Human Serotonin = target: T25, 5-HT3 Human Serotonin (Homo sapiens, UniProt P46098); experiment: biochemical; parameters: Eurofins SafetyScreen44 radioligand binding displacement, percent inhibition, duplicate; details: radioligand binding
T25 construct: gene HTR3A
Protocol: as §1

AR Human Androgen = AR Human Androgen (Homo sapiens, UniProt P10275); experiment: biochemical; parameters: Eurofins SafetyScreen44 radioligand binding displacement, percent inhibition, duplicate; details: radioligand binding
Protocol: as §1

H1 Human Histamine = target: T26, H1 Human Histamine (Homo sapiens, UniProt P35367); experiment: biochemical; parameters: Eurofins SafetyScreen44 radioligand binding displacement, percent inhibition, duplicate; details: radioligand binding
T26 construct: gene HRH1
Protocol: as §1

[8] = target: T27, M2 Human Acetylcholine (Muscarinic) (Homo sapiens, UniProt P08172); experiment: biochemical; parameters: Eurofins SafetyScreen44 radioligand binding displacement, percent inhibition, duplicate; details: radioligand binding
T27 construct: gene CHRM2
Protocol: as §1

5-HT1A Human Serotonin = target: T28, 5-HT1A Human Serotonin (Homo sapiens, UniProt P08908); experiment: biochemical; parameters: Eurofins SafetyScreen44 radioligand binding displacement, percent inhibition, duplicate; details: radioligand binding
T28 construct: gene HTR1A
Protocol: as §1

beta1 Human Adrenoceptor = target: T29, beta1 Human Adrenoceptor (Homo sapiens, UniProt P08588); experiment: biochemical; parameters: Eurofins SafetyScreen44 radioligand binding displacement, percent inhibition, duplicate; details: radioligand binding
T29 construct: gene ADRB1
Protocol: as §1

[9] = target: T30, nAChR (alpha4/beta2) Human Ion Channel (Homo sapiens, UniProt P17787+P43681); experiment: biochemical; parameters: Eurofins SafetyScreen44 radioligand binding displacement, percent inhibition, duplicate; details: radioligand binding
T30 construct: gene CHRNB2
Protocol: as §1

[10] = target: PDE3A Human Phosphodiesterase (Homo sapiens, UniProt Q14432); experiment: biochemical; parameters: Eurofins SafetyScreen44 enzymatic assay, percent inhibition, duplicate; details: enzymatic assay
Protocol: as §1

[11] = target: T31, COX1 Human Cyclooxygenase (Homo sapiens, UniProt P23219); experiment: biochemical; parameters: Eurofins SafetyScreen44 enzymatic assay, percent inhibition, duplicate; details: enzymatic assay
T31 construct: gene PTGS1
Protocol: as §1

[12] = target: T32, COX2 Human Cyclooxygenase (Homo sapiens, UniProt P35354); experiment: biochemical; parameters: Eurofins SafetyScreen44 enzymatic assay, percent inhibition, duplicate; details: enzymatic assay
T32 construct: gene PTGS2
Protocol: as §1

[13] = target: T33, PDE4D2 Human Phosphodiesterase (Homo sapiens, UniProt Q08499); experiment: biochemical; parameters: Eurofins SafetyScreen44 enzymatic assay, percent inhibition, duplicate; details: enzymatic assay
T33 construct: gene PDE4D; PDE4D2 isoform
Protocol: as §1

Acetylcholinesterase = target: T34, Acetylcholinesterase (Homo sapiens, UniProt P22303); experiment: biochemical; parameters: Eurofins SafetyScreen44 enzymatic assay, percent inhibition, duplicate; details: enzymatic assay
T34 construct: gene ACHE
Protocol: as §1

[14] = target: T35, Monoamine Oxidase A (MAO-A) (Homo sapiens, UniProt P21397); experiment: biochemical; parameters: Eurofins SafetyScreen44 enzymatic assay, percent inhibition, duplicate; details: enzymatic assay
T35 construct: gene MAOA
Protocol: as §1

SLC26A3 (human) = SLC26A3 (human) (Homo sapiens, UniProt P40879); experiment: YFP halide-sensor anion transport assay in HEK293 cells expressing human SLC26A3; type: cell-based
SLC26A3 (murine) = SLC26A3 (murine) (Mus musculus, UniProt Q9WVC8); experiment: YFP oxalate/chloride exchange assay in FRT cells stably expressing murine SLC26A3; Transwell oxalate transport; type: cell-based

T24 sequence (P21728 whole entry): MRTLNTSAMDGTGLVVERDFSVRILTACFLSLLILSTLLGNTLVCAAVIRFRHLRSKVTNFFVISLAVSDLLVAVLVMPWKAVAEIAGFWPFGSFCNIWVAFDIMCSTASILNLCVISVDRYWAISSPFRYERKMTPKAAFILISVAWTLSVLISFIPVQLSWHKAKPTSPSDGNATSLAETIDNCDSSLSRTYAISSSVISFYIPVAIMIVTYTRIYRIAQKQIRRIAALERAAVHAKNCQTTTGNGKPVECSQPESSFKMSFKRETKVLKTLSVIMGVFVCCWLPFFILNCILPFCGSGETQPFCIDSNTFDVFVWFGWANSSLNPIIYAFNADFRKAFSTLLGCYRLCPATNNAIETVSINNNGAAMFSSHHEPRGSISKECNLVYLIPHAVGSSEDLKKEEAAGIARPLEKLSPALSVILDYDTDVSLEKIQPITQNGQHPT
Sequence of AR Human Androgen (P10275 whole entry): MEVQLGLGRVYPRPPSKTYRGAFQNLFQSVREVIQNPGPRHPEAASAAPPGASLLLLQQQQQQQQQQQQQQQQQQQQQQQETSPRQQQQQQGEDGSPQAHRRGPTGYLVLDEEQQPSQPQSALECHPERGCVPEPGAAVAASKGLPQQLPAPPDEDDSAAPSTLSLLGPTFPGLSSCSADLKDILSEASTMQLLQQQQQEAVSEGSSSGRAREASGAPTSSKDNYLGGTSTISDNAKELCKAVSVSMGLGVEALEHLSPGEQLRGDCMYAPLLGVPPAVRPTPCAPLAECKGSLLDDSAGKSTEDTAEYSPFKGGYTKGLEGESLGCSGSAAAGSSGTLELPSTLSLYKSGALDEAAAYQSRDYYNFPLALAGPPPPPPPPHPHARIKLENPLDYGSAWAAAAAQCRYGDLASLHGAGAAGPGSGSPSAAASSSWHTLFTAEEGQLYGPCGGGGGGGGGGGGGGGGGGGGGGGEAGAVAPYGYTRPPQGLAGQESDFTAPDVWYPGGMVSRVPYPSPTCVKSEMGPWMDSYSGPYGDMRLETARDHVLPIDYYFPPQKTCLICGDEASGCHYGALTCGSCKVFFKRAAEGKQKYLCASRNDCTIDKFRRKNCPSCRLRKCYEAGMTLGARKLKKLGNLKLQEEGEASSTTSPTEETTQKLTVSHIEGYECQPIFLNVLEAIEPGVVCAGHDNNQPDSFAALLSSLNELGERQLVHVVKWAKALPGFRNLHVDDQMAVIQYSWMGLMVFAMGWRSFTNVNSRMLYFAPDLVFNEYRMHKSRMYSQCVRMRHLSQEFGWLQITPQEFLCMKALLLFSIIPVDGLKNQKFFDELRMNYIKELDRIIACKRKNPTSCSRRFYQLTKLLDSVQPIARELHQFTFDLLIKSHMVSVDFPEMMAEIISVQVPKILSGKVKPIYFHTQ
T27 sequence (P08172 whole entry): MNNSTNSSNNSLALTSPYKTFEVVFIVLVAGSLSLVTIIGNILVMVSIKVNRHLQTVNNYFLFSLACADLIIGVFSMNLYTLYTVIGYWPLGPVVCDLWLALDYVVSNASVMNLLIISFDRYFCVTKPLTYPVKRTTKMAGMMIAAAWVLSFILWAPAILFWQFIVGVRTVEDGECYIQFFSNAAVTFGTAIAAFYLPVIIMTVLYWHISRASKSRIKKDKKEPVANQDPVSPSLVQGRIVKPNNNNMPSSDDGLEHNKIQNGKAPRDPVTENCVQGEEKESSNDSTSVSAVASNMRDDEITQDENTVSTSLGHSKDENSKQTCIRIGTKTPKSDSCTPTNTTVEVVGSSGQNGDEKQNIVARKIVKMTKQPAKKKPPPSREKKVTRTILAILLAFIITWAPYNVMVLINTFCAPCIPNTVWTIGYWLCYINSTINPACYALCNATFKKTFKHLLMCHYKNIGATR
T6 sequence (P21554 whole entry): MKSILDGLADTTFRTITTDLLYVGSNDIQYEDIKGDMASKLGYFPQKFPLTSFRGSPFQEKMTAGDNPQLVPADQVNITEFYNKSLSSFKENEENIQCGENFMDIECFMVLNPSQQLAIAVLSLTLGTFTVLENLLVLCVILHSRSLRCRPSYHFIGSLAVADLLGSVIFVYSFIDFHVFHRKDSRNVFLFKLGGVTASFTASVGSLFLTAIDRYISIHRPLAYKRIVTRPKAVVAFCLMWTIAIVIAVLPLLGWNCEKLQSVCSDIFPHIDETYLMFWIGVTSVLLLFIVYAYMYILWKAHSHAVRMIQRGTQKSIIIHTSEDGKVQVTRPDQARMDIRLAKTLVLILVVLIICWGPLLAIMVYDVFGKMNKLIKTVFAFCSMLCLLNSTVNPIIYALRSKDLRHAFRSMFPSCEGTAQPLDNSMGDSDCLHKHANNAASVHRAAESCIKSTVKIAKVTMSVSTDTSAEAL
T32 sequence (P35354 whole entry): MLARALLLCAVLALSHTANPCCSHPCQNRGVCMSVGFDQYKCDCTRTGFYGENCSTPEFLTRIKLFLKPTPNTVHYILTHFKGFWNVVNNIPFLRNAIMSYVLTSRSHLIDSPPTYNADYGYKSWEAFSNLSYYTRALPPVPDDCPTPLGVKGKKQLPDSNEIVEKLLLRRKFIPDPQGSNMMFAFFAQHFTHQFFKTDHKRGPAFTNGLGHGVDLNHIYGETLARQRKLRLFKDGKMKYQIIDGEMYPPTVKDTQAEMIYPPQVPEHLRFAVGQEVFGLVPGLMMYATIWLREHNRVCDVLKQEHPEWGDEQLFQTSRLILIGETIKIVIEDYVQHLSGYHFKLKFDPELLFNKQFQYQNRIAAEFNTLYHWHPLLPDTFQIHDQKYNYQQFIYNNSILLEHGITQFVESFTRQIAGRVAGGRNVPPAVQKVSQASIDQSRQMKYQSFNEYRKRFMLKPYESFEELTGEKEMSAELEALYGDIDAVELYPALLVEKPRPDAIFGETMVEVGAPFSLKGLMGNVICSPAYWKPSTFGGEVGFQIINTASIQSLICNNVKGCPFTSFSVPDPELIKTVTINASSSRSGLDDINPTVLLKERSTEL
T14 sequence (P25021 whole entry): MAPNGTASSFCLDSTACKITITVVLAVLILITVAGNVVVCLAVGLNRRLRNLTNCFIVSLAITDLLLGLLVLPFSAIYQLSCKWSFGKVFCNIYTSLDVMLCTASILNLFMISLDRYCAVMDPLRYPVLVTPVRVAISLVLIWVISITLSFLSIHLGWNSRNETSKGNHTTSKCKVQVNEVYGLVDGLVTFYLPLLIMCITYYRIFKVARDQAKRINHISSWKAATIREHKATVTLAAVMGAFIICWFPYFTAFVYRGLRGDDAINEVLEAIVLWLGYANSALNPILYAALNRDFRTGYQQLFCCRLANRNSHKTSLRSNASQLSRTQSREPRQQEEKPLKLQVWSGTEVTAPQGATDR
T16 sequence (P41143 whole entry): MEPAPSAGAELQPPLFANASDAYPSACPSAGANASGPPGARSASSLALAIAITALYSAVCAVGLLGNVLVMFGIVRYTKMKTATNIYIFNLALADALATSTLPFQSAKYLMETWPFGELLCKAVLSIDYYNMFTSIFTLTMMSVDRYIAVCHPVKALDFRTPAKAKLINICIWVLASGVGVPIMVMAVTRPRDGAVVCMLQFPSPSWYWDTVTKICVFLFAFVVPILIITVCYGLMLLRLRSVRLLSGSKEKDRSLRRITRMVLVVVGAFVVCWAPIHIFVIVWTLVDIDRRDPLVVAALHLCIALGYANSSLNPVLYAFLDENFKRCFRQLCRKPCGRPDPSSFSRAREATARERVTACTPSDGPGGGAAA
T30 sequence (P17787 whole entry): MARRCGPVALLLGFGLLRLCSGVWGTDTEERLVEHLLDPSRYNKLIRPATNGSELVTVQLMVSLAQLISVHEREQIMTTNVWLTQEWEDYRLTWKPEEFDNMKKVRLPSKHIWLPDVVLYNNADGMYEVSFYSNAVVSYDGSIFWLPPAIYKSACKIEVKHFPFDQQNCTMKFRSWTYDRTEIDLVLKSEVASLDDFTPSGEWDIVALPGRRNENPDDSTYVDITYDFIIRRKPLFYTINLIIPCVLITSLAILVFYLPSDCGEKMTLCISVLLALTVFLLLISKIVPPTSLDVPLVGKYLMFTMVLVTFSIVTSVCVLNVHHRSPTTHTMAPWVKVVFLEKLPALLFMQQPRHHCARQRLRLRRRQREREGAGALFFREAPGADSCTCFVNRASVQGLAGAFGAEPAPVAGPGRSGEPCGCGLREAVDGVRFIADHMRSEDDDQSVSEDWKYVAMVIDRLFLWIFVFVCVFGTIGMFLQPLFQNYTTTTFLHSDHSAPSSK
T30 sequence (P43681 whole entry): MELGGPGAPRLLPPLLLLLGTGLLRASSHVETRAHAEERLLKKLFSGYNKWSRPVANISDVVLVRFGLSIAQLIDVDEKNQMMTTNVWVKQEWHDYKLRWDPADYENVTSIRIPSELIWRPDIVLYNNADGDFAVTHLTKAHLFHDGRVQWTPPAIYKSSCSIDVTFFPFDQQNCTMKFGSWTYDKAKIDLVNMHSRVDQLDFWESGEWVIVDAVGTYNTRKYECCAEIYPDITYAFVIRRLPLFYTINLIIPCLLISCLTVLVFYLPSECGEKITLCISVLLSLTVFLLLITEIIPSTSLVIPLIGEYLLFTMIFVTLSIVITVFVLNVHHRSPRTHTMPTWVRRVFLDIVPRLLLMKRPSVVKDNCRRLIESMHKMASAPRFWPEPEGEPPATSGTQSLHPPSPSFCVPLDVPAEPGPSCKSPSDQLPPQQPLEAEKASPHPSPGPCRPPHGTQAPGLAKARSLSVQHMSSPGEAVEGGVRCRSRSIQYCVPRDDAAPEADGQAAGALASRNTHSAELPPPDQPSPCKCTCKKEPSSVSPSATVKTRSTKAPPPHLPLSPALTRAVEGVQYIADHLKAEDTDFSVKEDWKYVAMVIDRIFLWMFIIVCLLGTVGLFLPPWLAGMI

`Cc1c(CC(=O)O)c(=O)oc2c(C)c(OCc3cccc(I)c3)ccc12` [4az (in ref. 19), DRAinh-A270] was tested, and the inhibition at 10 µM [1] was 9%, the inhibition at 10 µM (5-HT1B Human Serotonin) was -1% and the inhibition at 10 µM [2] was 29%. For the same compound, the inhibition at 10 µM (A2A Human Adenosine) was 46%, the inhibition at 10 µM (D2S Human Dopamine) was 2% and the inhibition at 10 µM (CB1 Human Cannabinoid) was -3%. The inhibition at 10 µM [3] was -2%, the inhibition at 10 µM (GR Human Glucocorticoid) was -7% and the inhibition at 10 µM [4] was 47%. It also gave an inhibition at 10 µM (5-HT2A Human Serotonin) of 17%, an inhibition at 10 µM (mu (MOP) Human Opioid) of -5% and an inhibition at 10 µM [5] of 5%. For the same compound, the inhibition at 10 µM (5-HT2B Human Serotonin) was 64%, the inhibition at 10 µM (H2 Human Histamine) was -2% and the inhibition at 10 µM (ETA Human Endothelin) was 13%. For the same compound, the inhibition at 10 µM (delta (DOP) Human Opioid) was -3%, the inhibition at 10 µM (beta2 Human Adrenoceptor) was 3% and the inhibition at 10 µM [6] was 8%. The inhibition at 10 µM [7] was -5%, the inhibition at 10 µM (kappa (KOP) Human Opioid) was 7% and the inhibition at 10 µM (CB2 Human Cannabinoid) was -1%. It also gave an inhibition at 10 µM (V1A Human Vasopressin) of -1%, an inhibition at 10 µM (hERG) of 19% and an inhibition at 10 µM (D1 Human Dopamine) of 13%. For the same compound, the inhibition at 10 µM (5-HT3 Human Serotonin) was -6%, the inhibition at 10 µM (AR Human Androgen) was 13% and the inhibition at 10 µM (H1 Human Histamine) was 27%. For the same compound, the inhibition at 10 µM [8] was -3%, the inhibition at 10 µM (5-HT1A Human Serotonin) was 0% and the inhibition at 10 µM (beta1 Human Adrenoceptor) was 14%. The inhibition at 10 µM [9] was -3%, the inhibition at 10 µM [10] was 4% and the inhibition at 10 µM [11] was -1%. The inhibition at 10 µM [12] was 15%, the inhibition at 10 µM [13] was -2% and the inhibition at 10 µM (Acetylcholinesterase) was 10%. The inhibition at 10 µM [14] was 73%, the IC50 (SLC26A3 (human)) was 0.02 µM and the IC50 (SLC26A3 (murine)) was ~0.06 µM.
